In article PMC10047683, “A Novel Family of Lysosomotropic Tetracyclic Compounds for Treating Leukemia” (Cancers, 2023):

Key:
KG-1 = test: 7AAD and annexin-V staining, flow cytometry; assay type: cell-based; details: 10 µM, 24 h, representative plot
Description: (§1) Seahorse studies were performed using the Agilent Seahorse XF Real-Time ATP Rate Assay Kit. Briefly, MonoMac1 and HL60 cells were suspended in complete medium at a concentration of 5 × 10^5 cells per ml and treated with EDK-87/EDK-88 with the indicated compounds for 18 h. Cells were washed and suspended in Seahorse medium (Seahorse XF medium with 2 mM glutamine, 10 mM glucose, 2 mM pyruvate) at a concentration of 1.4 × 10^6 (Mono Mac1) and 2.4 × 10^6 (HL60) cells per mL; 50 μL per well were seeded in 96-well Seahorse plates precoated with polylysine, centrifuged, and left to adhere for 20 min at 37 °C before adding prewarmed Seahorse medium to a final volume of 180 μL per well. Basal OCR and ECAR were measured, and the ATP rate assay was performed with the sequential injection of 1.5 μM oligomycin and 0.5 μM rotenone/antimycin A. A detailed description of this protocol was provided by the manufacturers. Mitochondrial ROS was quantified using the MitoSOX Red Mitochondrial Superoxide Indicator (Thermo Fischer Scientific, Waltham, MA, USA), as previously described. The activation of executive caspases was determined using CaspaseGlo® 3/7 Assay (Promega), following the manufacturer’s recommendations. The detection of Annexin-V staining was also described previously.

MonoMac-1 = test: 7AAD and annexin-V staining, flow cytometry; assay type: cell-based; details: 10 µM, 24 h, representative plot
Description: as §1

K562 = test: Pancancer cell line panel viability; assay type: cell-based; details: 10 µM, 48 h
Description: (§2) First, 2 × 10^5 (72 h assays in cell lines (Supplementary File S1)), 3 × 10^5 (48 h assays in cell lines) or 7.5 × 10^5 (primary AML, healthy donor buffy coats) cells per mL were cultured in 96-well plates, and all drugs were added at the indicated concentrations. In α-tocopherol experiments, cells were treated with growing concentrations of α-tocopherol and EDK drugs for 48 h. In the NAC and 3MA experiments, treatment was simultaneous with EDK compounds. In glucose deprivation experiments, cells were cultivated with a standard medium (glucose high, 2 g/L), a standard medium without glucose, or a standard medium with galactose (2 g/L) and without glucose. Cell viability was measured via 7-AAD (eBioscience) exclusion and Hoechst33342 (Sigma-Aldrich, St. Louis, MO, USA) positivity staining via flow cytometry, and the cell count was obtained through volume. In the experiments with the primary cells, analyses were performed inside the blast population as detected via blast gates (CD45^low SSC^int). For solid tumor cell lines, viability was analyzed using CellTiter-Glo® Luminescent Cell Viability Assay (Promega).
(§3) AML cell lines and cell cultures
(§4) Cell lines HL-60 (ACC-3), KG-1 (ACC-14), MonoMac-1 (ACC-252), Kasumi-1 […]
(§5) obtained from DSMZ. Cell lines THP-1 (TIB-202TM), MCF-7 (HTB-22™), MDA- […]
(§6) 3216™) and HS-5 (CRL-11882™) were obtained from ATCC. HBL-2 cell line was kindly supplied by Dr. Pérez-Galán (IDIBAPS, Barcelona, Spain). SKM-1 and U937 were kindly provided by Dr. Marcus Buschbeck (IJC, Badalona, Spain). All cell lines were cultured in the conditions indicated by the providers, and were tested for mycoplasma on a monthly basis.
(§7) All drugs were resuspended in H2O (Thermo Fischer Scientific), DMSO (Sigma-Aldrich) or ethanol (VWR) according to manufacturer’s specifications. - tocopherol, 3-methyladenine (3MA), arsenic trioxide (ATO) and N-acetyl-L-cysteine (NAC) were purchased from Sigma Aldrich. Chloroquine diphosphate was purchased from Merck. Etoposide and ionomycin were purchased from […]
(§8) (1 picture or pasted object on this page, not shown here)

HBL2 = test: Pancancer cell line panel viability; assay type: cell-based; details: 10 µM, 48 h
Description: as §2, §3, §4, §5, §6, §7, §8

HCT-15 = test: Pancancer cell line panel viability; assay type: cell-based; details: 10 µM, 48 h
Description: as §2, §3, §4, §5, §6, §7, §8

PC-3 = test: Pancancer cell line panel viability; assay type: cell-based; details: 10 µM, 48 h
Description: as §2, §3, §4, §5, §6, §7, §8

Jurkat = test: Pancancer cell line panel viability; assay type: cell-based; details: 10 µM, 48 h
Description: as §2, §3, §4, §5, §6, §7, §8

SR = test: Pancancer cell line panel viability; assay type: cell-based; details: 10 µM, 48 h
Description: as §2, §3, §4, §5, §6, §7, §8

RAMOS = test: Pancancer cell line panel viability; assay type: cell-based; details: 10 µM, 48 h
Description: as §2, §3, §4, §5, §6, §7, §8

M14 = test: Pancancer cell line panel viability; assay type: cell-based; details: 10 µM, 48 h
Description: as §2, §3, §4, §5, §6, §7, §8

CAKI = test: Pancancer cell line panel viability; assay type: cell-based; details: 10 µM, 48 h
Description: as §2, §3, §4, §5, §6, §7, §8

OVCAR = test: Pancancer cell line panel viability; assay type: cell-based; details: 10 µM, 48 h
Description: as §2, §3, §4, §5, §6, §7, §8

DU-145 = test: Pancancer cell line panel viability; assay type: cell-based; details: 10 µM, 48 h
Description: as §2, §3, §4, §5, §6, §7, §8

NCI = test: Pancancer cell line panel viability; assay type: cell-based; details: 10 µM, 48 h
Description: as §2, §3, §4, §5, §6, §7, §8

MOLT4 = test: Pancancer cell line panel viability; assay type: cell-based; details: 10 µM, 48 h
Description: as §2, §3, §4, §5, §6, §7, §8

HCT-116 = test: Pancancer cell line panel viability; assay type: cell-based; details: 10 µM, 48 h
Description: as §2, §3, §4, §5, §6, §7, §8

MDA-MB-231 = test: Pancancer cell line panel viability; assay type: cell-based; details: 10 µM, 48 h
Description: as §2, §3, §4, §5, §6, §7, §8

MDA-MB-435 = test: Pancancer cell line panel viability; assay type: cell-based; details: 10 µM, 48 h
Description: as §2, §3, §4, §5, §6, §7, §8

GRANTA = test: Pancancer cell line panel viability; assay type: cell-based; details: 10 µM, 48 h
Description: as §2, §3, §4, §5, §6, §7, §8

ACHN = test: Pancancer cell line panel viability; assay type: cell-based; details: 10 µM, 48 h
Description: as §2, §3, §4, §5, §6, §7, §8

JJN3 = test: Pancancer cell line panel viability; assay type: cell-based; details: 10 µM, 48 h
Description: as §2, §3, §4, §5, §6, §7, §8

U266 = test: Pancancer cell line panel viability; assay type: cell-based; details: 10 µM, 48 h
Description: as §2, §3, §4, §5, §6, §7, §8

MCF-7 = test: Pancancer cell line panel viability; assay type: cell-based; details: 10 µM, 48 h
Description: as §2, §3, §4, §5, §6, §7, §8

HOP62 = test: Pancancer cell line panel viability; assay type: cell-based; details: 10 µM, 48 h
Description: as §2, §3, §4, §5, §6, §7, §8

HEK-293T = test: Pancancer cell line panel viability (nontumor line); assay type: cell-based; details: HEK-293T (nontumor); 10 µM; 48 h
Description: as §2, §3, §4, §5, §6, §7, §8

HS-5 = test: as above; assay type: cell-based; details: HS-5 (nontumor); 10 µM; 48 h
Description: as §2, §3, §4, §5, §6, §7, §8

ADME-Tox: solubility = assay type: physicochemical
Description: All ADMET studies were performed in Eurofins Discovery Services (CEREP laboratories, Celle-Lévescault France). The pharmacokinetic studies were performed in Draconis Pharma SL (Barcelona, Spain) in CD-1 mice treated with 30 mg/kg EDK87 or EDK88 via SC or OG. Blood was collected by cardiac puncture at 0.5, 1, 2, 4, or 24 h.

CN1CCC(=C2c3ccccc3-c3c2sc2ccccc32)CC1 [EDK-87]
Q1 of 7AAD/annexin V plot (KG-1): 0.61 | Q2 of 7AAD/annexin V plot (KG-1): 10.0 | Q3 of 7AAD/annexin V plot (KG-1): 50.3 | Q4 of 7AAD/annexin V plot (KG-1): 39.1 | Q1 of 7AAD/annexin V plot (MonoMac-1): 2.96 | Q2 of 7AAD/annexin V plot (MonoMac-1): 9.41 | Q3 of 7AAD/annexin V plot (MonoMac-1): 21.7 | Q4 of 7AAD/annexin V plot (MonoMac-1): 65.9 | # Live cells refer to control (K562): 87% | # Live cells refer to control (HBL2): 58% | # Live cells refer to control (HCT-15): 52% | # Live cells refer to control (PC-3): 65% | # Live cells refer to control (Jurkat): 51% | # Live cells refer to control (SR): 42% | # Live cells refer to control (RAMOS): 74% | # Live cells refer to control (M14): 21% | # Live cells refer to control (CAKI): 58% | # Live cells refer to control (OVCAR): 59% | # Live cells refer to control (DU-145): 57% | # Live cells refer to control (NCI): 45% | # Live cells refer to control (MOLT4): 25% | # Live cells refer to control (HCT-116): 64% | # Live cells refer to control (MDA-MB-231): 47% | # Live cells refer to control (MDA-MB-435): 11% | # Live cells refer to control (GRANTA): 35% | # Live cells refer to control (ACHN): 70% | # Live cells refer to control (JJN3): 55% | # Live cells refer to control (U266): 70% | # Live cells refer to control (MCF-7): 32% | # Live cells refer to control (HOP62): 44% | # Live cells refer to control (HEK-293T): 79% | # Live cells refer to control (HS-5): 71% | solubility as compared to EDK-88 (ADME-Tox: solubility): lower
